Consider two compounds from US20030109519A1, “Use of selective potassium channel openers” (priority 2001, published 2003).

The test system of assay [1] is diabetic Zucker rats. Briefly: Oral glucose tolerance test after 3 weeks dosing in diabetic Zucker rats. The class given is in vivo, rat. The note with it: male diabetic Zucker rats, 1.5 mg/kg bid for 3 weeks, vs vehicle. Here is the method: (§1) A study was performed in a colony of diabetic Zucker rats housed in Vancouver, Canada. This is a model of hyperinsulinemia and impaired glucose tolerance/mild type 2 diabetes. The aim was to investigate whether treatment with the test compound 6-chloro-3-(1-methylcylodopropyl)amino-4H-thieno[3,2-e]-1,2,4-thiadiazine 1,1-dioxide could lead to a reduction in hyperinsulinemia and an improvement in insulin secretory responsiveness to glucose in the perfused pancreas. Male diabetic Zucker rats were dosed for 3 weeks with either 1.5 mg/kg 6-chloro-3-(1-methylcylodopropyl)amino-4H-thieno[3,2-e]-1,2,4-thiadiazine 1,1-dioxide bid (n=8) or vehicle (n=16). Oral glucose tolerance was assessed in the animals the day after the last dose was given.

The test system of assay [2] is perfused pancreas. Briefly: Perfused pancreas from treated diabetic Zucker rats. The class given is in vivo, rat. Here is the method:
as §1

Assay [3] has as its target KATP-channels on pancreatic beta-cells (Homo sapiens, UniProt Q09428). The note with it: by activation of KATP-channels on pancreatic beta-cells; Pirotte et al. 1993, 1994; cited from earlier work.

Sequence of KATP-channels on pancreatic beta-cells (Q09428 whole entry): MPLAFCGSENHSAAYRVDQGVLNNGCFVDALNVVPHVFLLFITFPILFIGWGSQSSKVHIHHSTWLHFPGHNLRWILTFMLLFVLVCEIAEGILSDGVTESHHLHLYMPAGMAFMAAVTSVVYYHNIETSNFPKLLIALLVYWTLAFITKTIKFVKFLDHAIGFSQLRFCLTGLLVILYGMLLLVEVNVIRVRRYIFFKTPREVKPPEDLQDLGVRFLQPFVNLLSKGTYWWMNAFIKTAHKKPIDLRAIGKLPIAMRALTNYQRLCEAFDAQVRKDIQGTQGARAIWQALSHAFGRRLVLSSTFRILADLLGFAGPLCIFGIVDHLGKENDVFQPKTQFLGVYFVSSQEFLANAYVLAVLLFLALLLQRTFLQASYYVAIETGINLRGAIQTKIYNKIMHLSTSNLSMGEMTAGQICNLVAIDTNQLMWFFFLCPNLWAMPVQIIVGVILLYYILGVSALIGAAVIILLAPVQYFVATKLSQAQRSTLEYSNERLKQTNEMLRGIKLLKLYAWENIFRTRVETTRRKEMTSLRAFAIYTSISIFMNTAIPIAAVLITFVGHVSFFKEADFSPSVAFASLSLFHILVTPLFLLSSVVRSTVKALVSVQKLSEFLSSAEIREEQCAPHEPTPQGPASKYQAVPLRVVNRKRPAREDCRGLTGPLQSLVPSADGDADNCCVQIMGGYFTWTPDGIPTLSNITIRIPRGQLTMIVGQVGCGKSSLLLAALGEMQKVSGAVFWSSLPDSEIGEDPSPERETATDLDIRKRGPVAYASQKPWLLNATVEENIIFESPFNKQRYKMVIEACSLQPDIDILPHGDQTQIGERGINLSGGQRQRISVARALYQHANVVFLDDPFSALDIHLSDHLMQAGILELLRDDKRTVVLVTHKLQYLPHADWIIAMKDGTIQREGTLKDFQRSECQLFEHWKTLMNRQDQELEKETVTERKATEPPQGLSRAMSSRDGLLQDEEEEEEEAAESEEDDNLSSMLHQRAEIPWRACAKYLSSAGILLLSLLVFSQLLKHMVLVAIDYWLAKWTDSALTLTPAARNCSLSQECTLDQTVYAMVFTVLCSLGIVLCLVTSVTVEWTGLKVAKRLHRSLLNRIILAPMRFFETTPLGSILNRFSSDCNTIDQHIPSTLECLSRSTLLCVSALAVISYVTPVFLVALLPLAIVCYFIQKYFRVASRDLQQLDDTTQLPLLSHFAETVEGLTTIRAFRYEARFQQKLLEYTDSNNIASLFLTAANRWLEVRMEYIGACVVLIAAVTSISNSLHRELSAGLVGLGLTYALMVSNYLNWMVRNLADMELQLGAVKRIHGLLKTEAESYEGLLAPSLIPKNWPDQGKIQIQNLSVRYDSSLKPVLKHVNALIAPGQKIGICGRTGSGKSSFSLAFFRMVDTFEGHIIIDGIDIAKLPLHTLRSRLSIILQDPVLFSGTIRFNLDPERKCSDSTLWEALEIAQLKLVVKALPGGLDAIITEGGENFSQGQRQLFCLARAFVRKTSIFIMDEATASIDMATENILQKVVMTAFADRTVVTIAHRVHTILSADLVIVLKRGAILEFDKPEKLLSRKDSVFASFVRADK
Sequence of KATP-channels on pancreatic beta-cells (Q14654 whole entry partner): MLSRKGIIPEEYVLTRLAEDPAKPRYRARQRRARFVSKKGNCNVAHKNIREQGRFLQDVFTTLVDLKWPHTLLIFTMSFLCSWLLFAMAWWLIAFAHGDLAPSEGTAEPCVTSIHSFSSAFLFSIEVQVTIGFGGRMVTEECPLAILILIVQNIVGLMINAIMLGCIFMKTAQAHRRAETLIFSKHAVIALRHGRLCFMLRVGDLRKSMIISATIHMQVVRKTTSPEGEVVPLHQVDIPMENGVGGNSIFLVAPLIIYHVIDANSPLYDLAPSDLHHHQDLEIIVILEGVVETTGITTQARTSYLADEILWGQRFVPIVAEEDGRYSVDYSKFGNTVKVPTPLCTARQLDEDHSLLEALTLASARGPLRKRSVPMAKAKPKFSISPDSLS

For `CC1(NC2=NS(=O)(=O)c3sc(Cl)cc3N2)CC1` [6-chloro-3-(1-methylcylodopropyl)amino-4H-thieno[3,2-e]-1,2,4-thiadiazine 1,1-dioxide], in assay [1] (assessed the day after the last dose), the oral glucose tolerance result is listed as “significantly improved”. In addition, in assay [1] (day after the last dose), the “hyperinsulinemia (associated with the oral glucose tolerance test)” value was “significant reduction in hyperinsulinemia”. Also, the “hyperinsulinemia in perfused pancreas” value in assay [2] (pancreata from rats treated 1.5 mg/kg bid for 3 weeks, evaluated two days after OGTT) is “reduced hyperinsulinemia”. The “insulin secretory responsiveness to glucose in perfused pancreas” value in assay [2] (pancreata from treated rats, two days after OGTT, data expressed relative to baseline) was “improved insulin secretory responsiveness to glucose”.
On to `CC1=Nc2ccc(Cl)cc2S(=O)(=O)N1` [diazoxide, 7-chloro-3-methyl-2H-1,2,4-benzothiadiazine 1,1-dioxide], for which the insulin release result in assay [3] is “inhibit insulin release”.
